How the values were obtained:
[1] = system: Carrageenin edema in rat's paw; assay: Carrageenin Edema Test in Rat's Paw (anti-inflammatory activity, Table 1); format: in vivo; conditions: 100 mg/kg oral, hydrochloride, rat
Protocol: An anti-inflammatory activity was measured by orally administering 100 mg/kg of a hydrochloride of the indazole derivative of this invention as set forth in Table 1 to an animal in accordance with the standard method of Carrageenin Edema Test in Rat's Paw described in C. A. Winter et al., Proc. Soc. Exp. Biol. Med., 111, 544 (1962).

in vivo = conditions: mouse, ip, intraperitoneal, hydrochloride, male ddy mice

| SMILES | inhibition in vivo at 100 mg/kg [1] [%] | LD50 (in vivo) [mg/kg] |
| --- | --- | --- |
| CCN(CC)CCCn1nc(NCCCN2CCCCC2)c2cc(Cl)ccc21 [(96), 1-(3-Diethylaminopropyl)-3-(3-piperidinopropylamino)-5-chloroindazole] | 29 | 243 |
| CCN(CC)CCCn1nc(NCCCCCCN2CCCCC2)c2cc(Cl)ccc21 [(97), 1-(3-Diethylaminopropyl)-3-(6-piperidinohexylamino)-5-chloroindazole] | 22 | 229 |
| CCCCN(CCCC)CCCNc1nn(CCCN(CC)CC)c2ccc(Cl)cc12 [(98), 1-(3-Diethylaminopropyl)-3-(3-di-n-butylaminopropylamino)-5-chloroindazole] | 32 | 286 |
| CCN(CC)CCCn1nc(NCCC(C)N2CCCCC2)c2cc(Cl)ccc21 (centres unmarked) [(99), 1-(3-Diethylaminopropyl)-3-(3-piperidinobutylamino)-5-chloroindazole] | 28 | 295 |
| CCN(CC)CCCNc1nn(CCCN2CCCCC2)c2ccc(Cl)cc12 [(100), 1-(3-Piperidinopropyl)-3-(3-diethylaminopropylamino)-5-chloroindazole] | 30 | 281 |
| Clc1ccc2c(c1)c(NCCCN1CCCCC1)nn2CCCN1CCCCC1 [(101), 1-(3-Piperidinopropyl)-3-(3-piperidinopropylamino)-5-chloroindazole] | 29 | 211 |
| Clc1ccc2c(c1)c(NCCCCCCN1CCCCC1)nn2CCCN1CCCCC1 [(102), 1-(3-Piperidinopropyl)-3-(6-piperidinohexylamino)-5-chloroindazole] | 22 | 255 |
| CC(CCNc1nn(CCCN2CCCCC2)c2ccc(Cl)cc12)N1CCCCC1 (centres unmarked) [(103), 1-(3-Piperidinopropyl)-3-(3-piperidinobutylamino)-5-chloroindazole] | 29 | 261 |
| CCN(CC)CCCNc1nn(CCC(C)N2CCCCC2)c2ccc(Cl)cc12 (centres unmarked) [(104), 1-(3-Piperidinobutyl)-3-(3-diethylaminopropylamino)-5-chloroindazole] | 30 | 277 |
| CC(CCn1nc(NCCCN2CCCCC2)c2cc(Cl)ccc21)N1CCCCC1 (centres unmarked) [(105), 1-(3-Piperidinobutyl)-3-(3-piperidinopropylamino)-5-chloroindazole] | 29 | 231 |
| CC(C)CC(CCNc1nn(CCC(C)N2CCCCC2)c2ccc(Cl)cc12)N1CCCCC1 (centres unmarked) [(106), 1-(3-Piperidinobutyl)-3-(3-piperidino-5-methylhexylamino)-5-chloroindazole] | 22 | 228 |
| CC(CCNc1nn(CCC(C)N2CCCCC2)c2ccc(Cl)cc12)N(C)C (centres unmarked) [(107), 1-(3-Piperidinobutyl)-3-(3-dimethylaminobutylamino)-5-chloroindazole] | 22 | 231 |
| CCN(CC)CCCNc1nn(CCC(C)N(C)C)c2ccc(Cl)cc12 (centres unmarked) [(108), 1-(3-Dimethylaminobutyl)-3-(3-diethylaminopropylamino)-5-chloroindazole] | 30 | 118 |
| CC(CCn1nc(NCCCN2CCCCC2)c2cc(Cl)ccc21)N(C)C (centres unmarked) [(109), 1-(3-Dimethylaminobutyl)-3-(3-piperidinopropylamino)-5-chloroindazole] | 29 | 387 |
| CC(CCn1nc(NCCC(C)N2CCCCC2)c2cc(Cl)ccc21)N(C)C (centres unmarked) [(110), 1-(3-Dimethylaminobutyl)-3-(3-piperidinobutylamino)-5-chloroindazole] | 28 | 293 |
| CCN(CC)C(CCNc1nn(CCC(C)N(C)C)c2ccc(Cl)cc12)CC(C)C (centres unmarked) [(111), 1-(3-Dimethylaminobutyl)-3-(3-diethylamino-5-methylhexylamino)-5-chloroindazole] | 22 | 314 |
| Clc1ccc2c(c1)c(NCCCN1CCCCCC1)nn2CCCN1CCCC1 [(112), 1-(3-Pyrrolidinopropyl)-3-(3-homopiperidinopropylamino)-5-chloroindazole] | 29 | 325 |
| CC1CCCCN1CCCNc1nn(CCCN2CCCC2)c2ccc(Cl)cc12 (centres unmarked) [(113), 1-(3-Pyrrolidinopropyl)-3-[3-(2-methylpiperidino)propylamino]-5-chloroindazole] | 31 | 221 |
| CN1CCN(CCCNc2nn(CCCN3CCCC3)c3ccc(Cl)cc23)CC1 [(114), 1-(3-Pyrrolidinopropyl)-3-[3-(4-methylpiperazino)propylamino]-5-chloroindazole] | 30 | 299 |
| CCN(CC)CCCNc1nn(CCCN2CCOCC2)c2ccc(Cl)cc12 [(115), 1-(3-Morpholinopropyl)-3-(3-diethylaminopropylamino)-5-chloroindazole] | 31 | 301 |

| SMILES | inhibition in vivo at 100 mg/kg [1] [%] | LD50 (in vivo) [mg/kg] |
| --- | --- | --- |
| CC1CCCC(C)N1CCCNc1nn(CCCN2CCOCC2)c2ccc(Cl)cc12 (centres unmarked) [(116), 1-(3-Morpholinopropyl)-3-[3-(2,6-dimethylpiperidino)propylamino]-5-chloroindazole] | 33 | 311 |
| Clc1ccc2c(c1)c(NCCCN1CCC(Cl)CC1)nn2CCCN1CCOCC1 [(117), 1-(3-Morpholinopropyl)-3-[3-(4-chloropiperidino)propylamino]-5-chloroindazole] | 30 | 291 |
| OC1CCN(CCCNc2nn(CCCN3CCOCC3)c3ccc(Cl)cc23)CC1 [(118), 1-(3-Morpholinopropyl)-3-[3-(4-hydroxypiperidino)propylamino]-5-chloroindazole] | 31 | 287 |
| CCN(CC)CCCNc1nn(CCCN(CC)CC)c2cccc(O)c12 [(119), 1-(3-Diethylaminopropyl)-3-(3-diethylaminopropylamino)-4-hydroxyindazole] | 29 | 271 |
| CCN(CC)CCCNc1nn(CCCN(CC)CC)c2ccc(O)cc12 [(120), 1-(3-Diethylaminopropyl)-3-(3-diethylaminopropylamino)-5-hydroxyindazole] | 28 | 269 |
| CCN(CC)CCCNc1nn(CCCN(CC)CC)c2cc(O)ccc12 [(121), 1-(3-Diethylaminopropyl)-3-(3-diethylaminopropylamino)-6-hydroxyindazole] | 21 | 251 |
| CCN(CC)CCCNc1nn(CCCN(CC)CC)c2c(O)cccc12 [(122), 1-(3-Diethylaminopropyl)-3-(3-diethylaminopropylamino)-7-hydroxyindazole] | 31 | 245 |
| CCN(CC)CCCNc1nn(CCCN(CC)CC)c2ccc(I)cc12 [(123), 1-(3-Diethylaminopropyl)-3-(3-diethylaminopropylamino)-5-iodoindazole] | 27 | 291 |
| CCN(CC)CCCNc1nn(CCCN(CC)CC)c2c(I)cccc12 [(124), 1-(3-Diethylaminopropyl)-3-(3-diethylaminopropylamino)-7-iodoindazole] | 29 | 313 |
| CCN(CC)CCCNc1nn(CCCN(CC)CC)c2c(N)cc(N)cc12 [(125), 1-(3-Diethylaminopropyl)-3-(3-diethylaminopropylamino)-5,7-diaminoindazole] | 28 | 320 |
| CCN(CC)CCCn1nc(NCCCCCCN2CCCCC2)c2cc(O)ccc21 [(127), 1-(3-Diethylaminopropyl)-3-(6-piperidinohexylamino)-5-hydroxyindazole] | 21 | 198 |
| CCCCN(CCCC)CCCNc1nn(CCCN(CC)CC)c2ccc(O)cc12 [(128), 1-(3-Diethylaminopropyl)-3-(3-di-n-butylaminopropylamino)-5-hydroxyindazole] | 31 | 170 |
| CCN(CC)CCCn1nc(NCCC(C)N2CCCCC2)c2cc(O)ccc21 (centres unmarked) [(129), 1-(3-Diethylaminopropyl)-3-(3-piperidinobutylamino)-5-hydroxyindazole] | 27 | 240 |
| CCN(CC)CCCNc1nn(CCCN2CCCCC2)c2ccc(O)cc12 [(130), 1-(3-Piperidinopropyl)-3-(3-diethylaminopropylamino)-5-hydroxyindazole] | 29 | 211 |
| Oc1ccc2c(c1)c(NCCCN1CCCCC1)nn2CCCN1CCCCC1 [(131), 1-(3-Piperidinopropyl)-3-(3-piperidinopropylamino)-5-hydroxyindazole] | 28 | 298 |
| Oc1ccc2c(c1)c(NCCCCCCN1CCCCC1)nn2CCCN1CCCCC1 [(132), 1-(3-Piperidinopropyl)-3-(6-piperidinohexylamino)-5-hydroxyindazole] | 21 | 310 |
| CC(CCNc1nn(CCCN2CCCCC2)c2ccc(O)cc12)N1CCCCC1 (centres unmarked) [(133), 1-(3-Piperidinopropyl)-3-(3-piperidinobutylamino)-5-hydroxyindazole] | 28 | 330 |
| CCN(CC)CCCNc1nn(CCC(C)N2CCCCC2)c2ccc(O)cc12 (centres unmarked) [(134), 1-(3-Piperidinobutyl)-3-(3-diethylaminopropylamino)-5-hydroxyindazole] | 29 | 349 |
| CC(CCn1nc(NCCCN2CCCCC2)c2cc(O)ccc21)N1CCCCC1 (centres unmarked) [(135), 1-(3-Piperidinobutyl)-3-(3-piperidinopropylamino)-5-hydroxyindazole] | 28 | 298 |
| CC(C)CC(CCNc1nn(CCC(C)N2CCCCC2)c2ccc(O)cc12)N1CCCCC1 (centres unmarked) [(136), 1-(3-Piperidinobutyl)-3-(3-piperidino-5-methylhexylamino)-5-hydroxyindazole] | 21 | 241 |

From patent publication US4751302A, “Indazole derivatives” (priority 1982, dated 1988)
